Patent US7410965B2, “Delayed release pharmaceutical composition containing 1-dimethyl-amino-3-(3-methoxyphenyl)-2-methyl-pentan-3-ol” (Gruenenthal GmbH, priority 2002, dated 2008)
Marks after values point to notes of the source that are not given here.

Tested on: female Sprague-Dawley rats
Assay: Cystometry test system on conscious fresh rats
Type: in vivo, rat
Conditions: for BC Bladder Capacity, change compared to the baseline value / ICI Inter-Contraction Interval, change compared to the baseline value / TP Threshold Pressure, change compared to the baseline value: effect maximum; for effect on the bladder regulation (in words): cystometry, iv
Procedure: Cystometry investigations were carried out on fresh female Sprague-Dawley rats according to the method of Ishizuka et al. ((1997), Naunyn-Schmiedeberg's Arch. Pharmacol. 355: 787-793). Three days after implantation of bladder and venous catheters the animals were investigated in the conscious state while freely moving. The bladder catheter was connected to a pressure gauge and an injection pump. The animals were placed in metabolic cages that enabled the volume of urine to be measured. Physiological saline solution was infused (10 ml/hour) into the emptied bladder and the bladder pressure and volume of urine were continuously recorded. After a stabilisation phase a 20-minute phase was recorded that was characterised by normal, reproducible micturition cycles. The following parameters among others were measured: • threshold pressure TP, bladder pressure immediately before micturition, • bladder capacity BC, residual volume after prior micturition plus volume of infused solution during the filling phase, • intercontraction interval ICI, i.e. the time interval between consecutive micturition.
An increase in the threshold pressure (TP) indicates an important therapeutic effect in one of the medical conditions covered by the invention. Also, the intercontraction interval (ICI) is an important parameter for measuring the physiological effectiveness of a substance in the treatment of urinary incontinence, as is the bladder capacity (BC). In this connection, on account of the widely differing causes of the symptoms of these disease patterns it is not necessary to influence positively all three parameters in order for a medicament to be effective.
After recording three reproducible micturition cycles to provide a baseline value, the test substances (1 (1.0 mg/kg), 2 (0.1; 0.3 and 0.5 mg/kg) and 21 (0.5 mg/kg), in a vehicle comprising 0.9% NaCl were applied intravenously and the effect on the cystometric parameters was recorded at 90 to 120 minutes. In the effect maximum the mean value of 3 micturition cycles was determined and recorded as a percentage change compared to the baseline value (Table 1).

CC[C@](O)(c1cccc(OC)c1)[C@H](C)CN(C)C.Cl (racemic) [Compound 1, (2RS,3RS)-1-dimethylamino-3-(3-methoxyphenyl)-2-methylpentan-3-ol; hydrochloride]
BC Bladder Capacity, change compared to the baseline value (1.0 mg/kg iv): +31%*** | ICI Inter-Contraction Interval, change compared to the baseline value (1.0 mg/kg iv): +42% | TP Threshold Pressure, change compared to the baseline value (1.0 mg/kg iv): +94%**

CC[C@](O)(c1cccc(OC)c1)[C@H](C)CN(C)C.Cl [Compound 2, (+)-(2R,3R)-1-dimethylamino-3-(3-methoxyphenyl)-2-methylpentan-3-ol; hydrochloride]
BC Bladder Capacity, change compared to the baseline value (0.1 mg/kg iv): +7.8% | ICI Inter-Contraction Interval, change compared to the baseline value (0.1 mg/kg iv): +15.6% | TP Threshold Pressure, change compared to the baseline value (0.1 mg/kg iv): +28.5%** | BC Bladder Capacity, change compared to the baseline value (0.3 mg/kg iv): +33%* | ICI Inter-Contraction Interval, change compared to the baseline value (0.3 mg/kg iv): +28%* | TP Threshold Pressure, change compared to the baseline value (0.3 mg/kg iv): +122%** | BC Bladder Capacity, change compared to the baseline value (0.5 mg/kg iv): +20.6%* | ICI Inter-Contraction Interval, change compared to the baseline value (0.5 mg/kg iv): +28.6%** | TP Threshold Pressure, change compared to the baseline value (0.5 mg/kg iv): +77.5%** | effect on the bladder regulation (in words): very effective

CC[C@@](O)(c1cccc(OC)c1)[C@@H](C)CN(C)C.Cl [Compound 21, (−)-(2S,3S)-1-dimethylamino-3-(3-methoxyphenyl)-2-methylpentan-3-ol; hydrochloride]
BC Bladder Capacity, change compared to the baseline value (0.5 mg/kg iv): +3% | ICI Inter-Contraction Interval, change compared to the baseline value (0.5 mg/kg iv): +10% | TP Threshold Pressure, change compared to the baseline value (0.5 mg/kg iv): −1.1% | effect on the bladder regulation (in words): does not exhibit such a marked effect
